Measured values from US20230116703A1, “NOVEL ERGOLINES AND METHODS OF TREATING MOOD DISORDERS” (priority 2021, published 2023).

What was measured:
[1] = Metabolic stability in rat liver microsomes (RLM); conditions: for t1/2: RLM, 0.50 mg protein per mL; for microsomal CLint at 1 μM: both, rat, pooled rat liver microsomes, pH 7.4
[2] = target: 5-HT1B receptor (Homo sapiens, UniProt P28222); experiment: cAMP accumulation agonist assay at 5-HT1B; assay type: cell-based; conditions: cAMP, agonist; read-out: 5-HT1B EC50
Method: Disclosed compounds were tested for agonist activity at several serotonin receptor subtypes (5-HT2A, […], 5-HT2C, and 5-HT1A) using Ca^2+ flux functional assays and the 5-HT1B receptor using a cAMP accumulation assay, with the results summarized in Table 4. […] Potent agonist activity was also observed at the other serotonin receptors tested, although the selectivity profile among the receptors varied across compounds. […]. However, at the same time, the N-propyl compounds were more efficacious agonists at 5-HT2B than the corresponding N-methyl compounds. The selectivity of disclosed compounds for 5-HT2A over 5-HT2C and 5-HT1A was less predictable and varied widely across compounds, ranging from ˜1:6 to ˜20:1 (2C/2A) in the case of 5-HT2C and from ˜1:4 to >100:1 (1A/2A) in the case of 5-HT1A. […] An azetidinyl amide substituent tended to increase potency at 5-HT1A relative to 5-HT2A.
Functional Assay at 5-HT1B. Agonist activity at 5-HT1B was determined using a cAMP accumulation protocol at WuXi AppTec (Hong Kong) Limited according to their standard protocols. Briefly, stably transfected cells were plated in an OptiPlate-384 well plate, incubated at RT for 60 mins, and cAMP standard solution (800 nM, 10 μL) was added to the blank well. Then, 10 μL detection reagent was added to each well, the plate incubated for 60 mins at RT, and the plate read using EnVision.

[3] = Metabolic stability in mouse liver microsomes (MLM); assay type: in vitro ADME; conditions: 0.50 mg protein per mL; for t1/2: MLM (CD-1), 1 μM; for microsomal CLint at 1 μM: mouse, pooled mouse liver microsomes, pH 7.4, MLM (CD-1)
Text: MLM Stability Pooled MLM from CD-1 mice (BIOIVT M00501) were used.

[4] = target: T1, 5-HT2A receptor (Homo sapiens, UniProt P28223); experiment: biochemical; assay type: binding; conditions: 1 nM [^3H]ketanserin, HEK293 stable cell line; read-out: 5-HT2A Receptor Ki (nM) ([^3H]ketanserin)
T1 construct: host or cells: HEK293
Method: Affinity of the test compounds for the 5-HT2A receptor was determined in radioligand binding experiments with [^3H]ketanserin by WuXi AppTec (Hong Kong) Limited, using methods adapted from the literature and under conditions described in Table 1.

[5] = Metabolic stability in human liver microsomes (HLM); assay type: in vitro ADME; conditions: for t1/2: 1 μM, 0.50 mg protein per mL; for microsomal CLint at 1 μM: both sexes, human, pooled human liver microsomes, pH 7.4, 0.50 mg protein per mL
Text: HLM Stability. Pooled HLM from adult male and female donors (Corning 452117) were used.

[6] = target: T2, 5-HT1A receptor (Homo sapiens, UniProt P08908); experiment: cell-based; conditions: Ca^2+ flux, agonist; for EC50: read-out: 5-HT1A EC50
T2 construct: host or cells: CHO cells
T2 sequence (P08908 1-422): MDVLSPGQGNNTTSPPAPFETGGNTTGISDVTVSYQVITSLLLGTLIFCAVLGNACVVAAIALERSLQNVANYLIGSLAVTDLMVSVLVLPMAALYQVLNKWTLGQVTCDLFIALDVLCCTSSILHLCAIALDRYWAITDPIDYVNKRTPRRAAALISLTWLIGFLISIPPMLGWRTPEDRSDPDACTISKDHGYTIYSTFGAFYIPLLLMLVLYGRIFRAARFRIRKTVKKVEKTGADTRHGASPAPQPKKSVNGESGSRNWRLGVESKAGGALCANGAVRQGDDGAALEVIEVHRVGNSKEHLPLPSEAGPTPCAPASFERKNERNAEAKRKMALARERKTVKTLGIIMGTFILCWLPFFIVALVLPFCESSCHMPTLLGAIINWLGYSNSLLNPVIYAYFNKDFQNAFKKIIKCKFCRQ
Method: (§1) Functional Assays at 5-HT2A, 5-HT2B, and 5-HT1A. Agonist activity at 5-HT2A, 5-HT2B, and 5-HT1A receptors was determined using a FLIPR Ca^2+ flux assay at WuXi AppTec (Hong Kong) Limited according to their standard protocols. Briefly, stably transfected cells expressing the receptor of interest (HEK293 for 5-HT2A and 5-HT2B; CHO cells for 5-HT1A) were grown and plated in a 384 well plate and incubated at 37° C. and 5% CO2 overnight. A solution of 250 mM probenecid in 1 mL FLIPR assay buffer was prepared fresh. This was combined with a fluorescent dye (Fluo-4 Direct™) to make a final assay concentration of 2.5 mM. […] The fluorescent dye was then added to the assay plate along with assay buffer to a final volume of 40 μL. The cell plate was incubated for 50 min at 37° C. and 5% CO2 and placed into the FLIPR Tetra along with the compound plate. 10 μL of references and compounds were then transferred from the compound plate into the cell plate and the fluorescent signal was read.

[7] = target: T3, 5-HT2B receptor (Homo sapiens, UniProt P41595); experiment: cell-based; conditions: Ca^2+ flux, agonist; for EC50: read-out: 5-HT2B EC50
T3 construct: host or cells: HEK293
Method: as §1

[8] = target: T1, 5-HT2A receptor; experiment: cell-based; assay type: cell-based; conditions: Ca^2+ flux, agonist; read-out: 5-HT2A EC50
Method: as §1

5-HT1B receptor, sequence (P28222 whole entry): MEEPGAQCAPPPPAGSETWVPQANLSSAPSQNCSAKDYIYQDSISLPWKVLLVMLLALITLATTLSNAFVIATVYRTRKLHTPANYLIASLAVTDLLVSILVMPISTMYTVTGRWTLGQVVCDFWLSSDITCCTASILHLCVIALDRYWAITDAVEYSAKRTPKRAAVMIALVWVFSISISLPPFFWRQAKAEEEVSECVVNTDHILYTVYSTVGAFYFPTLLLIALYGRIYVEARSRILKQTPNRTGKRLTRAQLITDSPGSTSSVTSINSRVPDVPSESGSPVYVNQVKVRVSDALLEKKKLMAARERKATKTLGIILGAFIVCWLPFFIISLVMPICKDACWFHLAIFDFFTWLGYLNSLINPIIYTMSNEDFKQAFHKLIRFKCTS
T1 sequence (P28223 whole entry): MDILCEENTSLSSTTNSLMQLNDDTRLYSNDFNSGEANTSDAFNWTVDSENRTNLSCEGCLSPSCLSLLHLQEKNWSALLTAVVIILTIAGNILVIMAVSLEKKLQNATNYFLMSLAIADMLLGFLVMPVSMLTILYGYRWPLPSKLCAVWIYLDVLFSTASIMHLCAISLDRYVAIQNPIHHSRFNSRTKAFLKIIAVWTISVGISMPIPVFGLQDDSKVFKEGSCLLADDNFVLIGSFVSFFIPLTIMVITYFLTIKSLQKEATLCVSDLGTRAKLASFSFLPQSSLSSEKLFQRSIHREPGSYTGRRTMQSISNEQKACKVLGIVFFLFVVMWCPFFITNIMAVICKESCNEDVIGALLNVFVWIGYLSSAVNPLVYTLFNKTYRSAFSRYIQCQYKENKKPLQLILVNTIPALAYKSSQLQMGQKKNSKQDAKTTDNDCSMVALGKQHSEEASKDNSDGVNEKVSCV
T3 sequence (P41595 whole entry): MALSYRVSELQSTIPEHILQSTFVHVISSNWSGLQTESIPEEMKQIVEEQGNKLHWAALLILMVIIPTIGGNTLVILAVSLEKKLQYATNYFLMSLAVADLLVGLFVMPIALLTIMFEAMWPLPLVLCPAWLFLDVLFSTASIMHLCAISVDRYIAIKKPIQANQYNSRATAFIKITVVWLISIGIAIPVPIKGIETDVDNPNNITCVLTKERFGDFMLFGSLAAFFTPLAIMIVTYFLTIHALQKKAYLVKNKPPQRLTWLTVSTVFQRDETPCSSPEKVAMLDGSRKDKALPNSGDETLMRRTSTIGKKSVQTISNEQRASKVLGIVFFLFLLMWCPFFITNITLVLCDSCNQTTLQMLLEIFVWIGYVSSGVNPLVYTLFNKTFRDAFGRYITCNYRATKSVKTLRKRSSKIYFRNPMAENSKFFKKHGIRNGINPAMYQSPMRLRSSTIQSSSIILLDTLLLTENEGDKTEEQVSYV

Row | SMILES | t1/2 [1] | microsomal CLint at 1 μM [1] | EC50 [2] | t1/2 [3] | microsomal CLint at 1 μM [3] | Ki [4] | t1/2 [5] | microsomal CLint at 1 μM [5] | 5-HT1A % Act @ Max Dose [6] | EC50 [6] | EC50 [7] | EC50 [8] | 5-HT2B % Act @ Max Dose [7]
1 | CCN(CC)C(=O)[C@@H]1C=C2c3cccc4[nH]cc(c34)C[C@H]2N(Cc2ccc(OC)cc2)C1 [Compound 19, (6aR,9R)—N,N-diethyl-7-(4-methoxybenzyl)-4,6,6a,7,8,9-hexahydroindolo[4,3-fg]quinoline-9-carboxamide] | 10.0 min | 139 µL/min/mg | 5850 nM | 7.2 min | 193 µL/min/mg | 5.58 nM | 16.8 min | 82.7 µL/min/mg | −0.65% | > 10000 nM | > 10000 nM | 2960 nM | –
2 | CCN(CC)C(=O)[C@@H]1C=C2c3cccc4[nH]cc(c34)C[C@H]2N(CCc2cccc(OC)c2)C1 [Compound 20, (6aR,9R)—N,N-diethyl-7-(3-methoxyphenethyl)-4,6,6a,7,8,9-hexahydroindolo[4,3-fg]quinoline-9-carboxamide] | 1.2 min | 1150 µL/min/mg | > 10000 nM | 0.9 min | 1550 µL/min/mg | 1.03 nM | 2.1 min | 649 µL/min/mg | – | > 10000 nM | > 10000 nM | 265 nM | 3.60%
3 | CCN(CC)C(=O)[C@@H]1C=C2c3cccc4[nH]cc(c34)C[C@H]2N(CCc2ccc(OC)cc2)C1 [Compound 21, (6aR,9R)—N,N-diethyl-7-(4-methoxyphenethyl)-4,6,6a,7,8,9-hexahydroindolo[4,3-fg]quinoline-9-carboxamide] | 4.3 min | 323 µL/min/mg | 2750 nM | 1.9 min | 717 µL/min/mg | 1.93 nM | 3.8 min | 368 µL/min/mg | 8.2% | > 10000 nM | > 10000 nM | 619 nM | –
4 | CCN(CC)C(=O)[C@@H]1C=C2c3cccc4[nH]cc(c34)C[C@H]2N(CCc2ccccn2)C1 [Compound 23, (6aR,9R)—N,N-diethyl-7-(2-(pyridin-2-yl)ethyl)-4,6,6a,7,8,9-hexahydroindolo[4,3-fg]quinoline-9-carboxamide] | 4.2 min | 332 µL/min/mg | 450 nM | 1.8 min | 769 µL/min/mg | 26.6 nM | 7.2 min | 193 µL/min/mg | – | > 10000 nM | > 10000 nM | 512 nM | –
5 | CCN(CC)C(=O)[C@@H]1C=C2c3cccc4[nH]cc(c34)C[C@H]2N(Cc2cccc(OC)c2)C1 [Compound 18, (6aR,9R)—N,N-diethyl-7-(3-methoxybenzyl)-4,6,6a,7,8,9-hexahydroindolo[4,3-fg]quinoline-9-carboxamide] | 5.3 min | 263 µL/min/mg | 1780 nM | 2.6 min | 524 µL/min/mg | 3.41 nM | 13.6 min | 102 µL/min/mg | – | > 10000 nM | > 10000 nM | 227 nM | –
6 | CCN(CC)C(=O)[C@@H]1C=C2c3cccc4[nH]cc(c34)C[C@H]2N(Cc2ccccn2)C1 [Compound 22, (6aR,9R)—N,N-diethyl-7-(pyridin-2-ylmethyl)-4,6,6a,7,8,9-hexahydroindolo[4,3-fg]quinoline-9-carboxamide] | 13.2 min | 105 µL/min/mg | 847 nM | 9.2 min | 150 µL/min/mg | 28.4 nM | 23.8 min | 58.2 µL/min/mg | – | 7840 nM | > 10000 nM | 748 nM | –
7 | CCN(CC)C(=O)[C@@H]1C=C2c3cccc4[nH]cc(c34)C[C@H]2N(Cc2ccccc2O)C1 [Compound 16, (6aR,9R)—N,N-diethyl-7-(2-hydroxybenzyl)-4,6,6a,7,8,9-hexahydroindolo[4,3-fg]quinoline-9-carboxamide] | 2.2 min | 616 µL/min/mg | 682 nM | 1.3 min | 1050 µL/min/mg | 2.18 nM | 4.9 min | 286 µL/min/mg | – | > 10000 nM | > 10000 nM | 547 nM | –
